Reference: paper PMC9871744 (Cellular and Molecular Gastroenterology and Hepatology, 2022)
Several values for one entry are separate records, joined by “and”; a condition that tells them apart may be missing. Equal values may be shown once.

Experiments:
Cytotoxicity evaluation = details: human, Cytotoxicity (%)
HepG2 cells [1] = test: Cytotoxicity evaluation
HepG2 cells [2] = test: Micronucleus analysis
C57Bl/6 male mice [3] = test: Lingual application: pancreato-bile secretion and release of gut peptides; format: in vivo; details: tongue application 100 μmol/L; at 30 and 60 minutes
[4] = Pharmacokinetics and detection in blood by LC-MS; format: in vivo, mice; details: mice
female Wistar rats = test: Toxicity / median lethal dose test, OECD guidelines 425; format: in vivo
[5] = system: chorda tympani (CT) nerve; test: Chorda tympani; format: in vivo; details: lingual application in mice; 1, 2, and 4 mmol/L; normalized to NH4Cl 100 mmol/L
human fungiform TBC = test: Ca2+ signaling in human fungiform TBC; format: cell-based
C57BL/6J male mice = test: Diet-induced obesity; format: in vivo
[6] = system: S typhimurium tester strains TA98, TA100, TA1535, and TA1537 and E coli tester strain WP2uvrA(pKM101); details: all doses with and without S9
[7] = molecular target: T1, human estrogen receptor alpha (hERα) (Homo sapiens, UniProt P03372); test: Estrogen receptor transcriptional activation and inhibition assays; format: cell-based
T1 sequence (P03372 1-595): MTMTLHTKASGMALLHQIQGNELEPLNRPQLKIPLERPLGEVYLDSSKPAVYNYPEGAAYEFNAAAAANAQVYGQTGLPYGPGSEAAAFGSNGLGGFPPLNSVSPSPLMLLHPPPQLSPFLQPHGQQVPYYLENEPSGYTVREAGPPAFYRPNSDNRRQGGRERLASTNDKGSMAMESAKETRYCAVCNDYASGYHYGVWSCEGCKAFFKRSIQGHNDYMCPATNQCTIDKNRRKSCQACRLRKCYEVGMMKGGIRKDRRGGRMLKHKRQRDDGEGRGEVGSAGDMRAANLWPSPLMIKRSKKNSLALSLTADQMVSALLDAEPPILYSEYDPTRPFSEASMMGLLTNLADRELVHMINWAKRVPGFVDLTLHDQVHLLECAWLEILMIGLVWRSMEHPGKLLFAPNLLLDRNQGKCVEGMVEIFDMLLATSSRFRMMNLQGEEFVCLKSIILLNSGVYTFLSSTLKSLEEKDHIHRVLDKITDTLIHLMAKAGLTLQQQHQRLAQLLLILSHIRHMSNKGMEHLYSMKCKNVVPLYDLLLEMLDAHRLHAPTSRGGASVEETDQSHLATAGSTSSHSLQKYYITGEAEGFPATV

[8] = system: human androgen receptor (hAR); test: Androgen receptor transcriptional activation and inhibition assays; format: cell-based
C57Bl/6 male mice [9] = test: Two-bottle preference and licking tests; format: in vivo; details: 75 μmol/L in 0.3% xanthan gum, 12 hours
mouse fungiform TBC = test: Ca2+ signaling in mouse fungiform TBC; format: cell-based; details: LA at 20 μmol/L
[10] = short treatment in the presence of S9 mix, 5 μg/mL (Table 4)
[11] = short treatment in the presence of S9 mix, 10 μg/mL (Table 7)
[12] = short treatment in the presence of S9 mix, 5 μg/mL (Table 11)
[13] = short treatment in the presence of S9 mix, 10 μg/mL (Table 12)
[14] = rats, single oral 2000 mg/kg, means ± SEM (n = 5)
[15] = extended treatment in the absence of S9 mix
[16] = short treatment in the absence of S9 mix
[17] = short treatment in the presence of S9 mix
[18] = extended treatment in the absence of S9 mix, 2.5 mmol/L
[19] = extended treatment in the absence of S9 mix, 5 mmol/L
[20] = extended treatment in the absence of S9 mix, 10 mmol/L
[21] = short treatment in the absence of S9 mix, 2.5 mmol/L
[22] = short treatment in the absence of S9 mix, 5 mmol/L
[23] = short treatment in the absence of S9 mix, 10 mmol/L
[24] = short treatment in the presence of S9 mix, 2.5 mmol/L
[25] = short treatment in the presence of S9 mix, 5 mmol/L
[26] = short treatment in the presence of S9 mix, 10 mmol/L
[27] = extended treatment in the absence of S9 mix, 0.0025 μg/mL (Table 5)
[28] = extended treatment in the absence of S9 mix, 0.025 μg/mL (Table 8)
[29] = extended treatment in the absence of S9 mix, 0.0025 μg/mL (Table 13)
[30] = extended treatment in the absence of S9 mix, 0.025 μg/mL (Table 14)

## O=P1(N(CCCl)CCCl)NCCCO1 (stereo not drawn) [Cyclophosphamide, reference compound]
Cytotoxicity evaluation; [10]
  cytotoxicity at 5 μg/mL: 13%
Cytotoxicity evaluation; [11]
  cytotoxicity at 10 μg/mL: 5.3%
HepG2 cells [1]; [10]
  CBPI: 1.73 and 1.66
  Mean CBPI: 1.70
HepG2 cells [1]; [11]
  CBPI: 1.93 and 2.09
  Mean CBPI: 2.01
HepG2 cells [2]; [12]
  MNBN cells frequency (%): 2.3% and 3.1%
  Mean frequency (%) of MNBN cells: 2.70%
HepG2 cells [2]; [13]
  MNBN cells frequency (%): 8.2% and 7.9%
  Mean frequency (%) of MNBN cells: 8.05%

## CCCCC/C=C\C/C=C\CCCCCCCC(=O)O [LA, linoleic acid, reference compound]
C57Bl/6 male mice [3]
  release of cholecystokinin (CCK) into blood: better inducer than NKS-3

## CCCCC/C=C\C/C=C\CCCCCCCC(=O)OCC1(C)COC1 [NKS-5, (9Z,12Z)-(3-methyloxetan-3-yl)methyl octadeca-9,12-dienoate]
[4]
  detection in blood circulation after intravenous injections (LC-MS): below the level of detection
Female Wistar rats; [14]
  weight of kidneys: 1.84 ± 0.112 g
  weight of liver: 8.03 ± 0.136 g
  weight of spleen: 0.90 ± 0.062 g
Female Wistar rats; rats, single oral limit dose 2000 mg/kg body weight, 2 weeks
  toxic effect on liver enzymes and blood lipid parameters: No toxic effect
Female Wistar rats; single animal, oral dosages of 5000 mg/kg body weight
  evidence of toxicity, preliminary study: no evidence of toxicity
[5]
  CT nerve responses compared with dietary LCFAs (LA, OA): higher
Human fungiform TBC
  Ca2+ signaling compared with a dietary long-chain fatty acid: higher
Human fungiform TBC; NKS-3 50 μmol/L, NKS-5 25 μmol/L
  increase in intracellular free Ca2+ concentrations, [Ca2+]i: induced an increase
C57BL/6J male mice; HFD animals, FTA intake 16 weeks
  CD36 (reduced) and GPR120 (high) protein expression in TBC, Western blots: reversed this trend
C57BL/6J male mice; HFD mice given FTA 16 weeks
  LA-induced decreases in [Ca2+]i in TBC from obese mice: reversed
C57BL/6J male mice; HFD-fed mice
  size of hepatocytes: decreased
C57BL/6J male mice; HFD-fed mice, 16S rRNA sequencing, week 26
  fecal microbiota: bacterial family increased: Bacteroidaceae
C57BL/6J male mice; HFD-fed mice, epididymal adipose tissue
  adipose tissue mRNA encoding leptin, CD36, TNF-α, and IL6: down-regulated
C57BL/6J male mice; obese animals, histology
  crown-like structures of adipocytes: decreased
C57BL/6J male mice; obese mice
  circulating TNF-α levels: failed to decrease significantly
C57BL/6J male mice; obese mice, end of week 26
  release of GLP-1, CCK-1, and PYY into blood circulation: induced the release
[6]
  toxicity in the tester strains: No toxicity
C57Bl/6 male mice [3]
  release of cholecystokinin (CCK) into blood: more efficient than NKS-3 and LA
  release of peptide YY (PYY) into blood: more potent than NKS-3 and LA
Cytotoxicity evaluation; [15]
  cytotoxicity at 2.5 mmol/L: 5.29%
  cytotoxicity at 5 mmol/L: 19.6%
  cytotoxicity at 10 mmol/L: 14.7%
Cytotoxicity evaluation; [16]
  cytotoxicity at 2.5 mmol/L: -5.78%
  cytotoxicity at 5 mmol/L: -1.42%
  cytotoxicity at 10 mmol/L: 1.32%
Cytotoxicity evaluation; [17]
  cytotoxicity at 2.5 mmol/L: -0.59%
  cytotoxicity at 5 mmol/L: -6.22%
  cytotoxicity at 10 mmol/L: 1.64%
HepG2 cells [1]; [18]
  CBPI: 2.02 and 1.97
  Mean CBPI: 1.99
HepG2 cells [1]; [19]
  CBPI: 1.83 and 1.85
  Mean CBPI: 1.84
HepG2 cells [1]; [20]
  CBPI: 1.95 and 1.84
  Mean CBPI: 1.89
HepG2 cells [1]; [21]
  CBPI: 1.99 and 1.98
  Mean CBPI: 1.98
HepG2 cells [1]; [22]
  CBPI: 1.95 and 1.94
  Mean CBPI: 1.94
HepG2 cells [1]; [23]
  CBPI: 1.91 and 1.93
  Mean CBPI: 1.92
HepG2 cells [1]; [24]
  CBPI: 2.07
  Mean CBPI: 2.07
HepG2 cells [1]; [25]
  CBPI: 2.14 and 2.12
  Mean CBPI: 2.13
HepG2 cells [1]; [26]
  CBPI: 2.06 and 2.04
  Mean CBPI: 2.05
HepG2 cells [2]; [21]
  MNBN cells frequency (%): 1.1% and 0.8%
  Mean frequency (%) of MNBN cells: 0.95%
HepG2 cells [2]; [22]
  MNBN cells frequency (%): 1.1% and 1.3%
  Mean frequency (%) of MNBN cells: 1.20%
HepG2 cells [2]; [23]
  MNBN cells frequency (%): 0.9% and 0.8%
  Mean frequency (%) of MNBN cells: 0.85%
HepG2 cells [2]; [24]
  MNBN cells frequency (%): 1.0% and 1.1%
  Mean frequency (%) of MNBN cells: 1.05%
HepG2 cells [2]; [25]
  MNBN cells frequency (%): 0.9%
  Mean frequency (%) of MNBN cells: 0.90%
HepG2 cells [2]; [26]
  MNBN cells frequency (%): 0.9% and 0.8%
  Mean frequency (%) of MNBN cells: 0.85%
[7]
  estrogenic or antiestrogenic potential (conclusion): did not exert an estrogenic or antiestrogenic potential
[8]
  androgenic or antiandrogenic property (conclusion): did not possess androgenic or antiandrogenic property
C57Bl/6 male mice [9]
  preference in 2-bottle paradigm versus control solution: significant preference
Mouse fungiform TBC
  Ca2+ signaling compared with a dietary long-chain fatty acid: higher

## CC[C@]1(O)C[C@@H]2CN(CCc3c([nH]c4ccccc34)[C@@](C(=O)OC)(c3cc4c(cc3OC)N(C)[C@H]3[C@@](O)(C(=O)OC)[C@H](OC(C)=O)[C@]5(CC)C=CCN6CC[C@]43[C@@H]65)C2)C1 [Vinblastine, reference compound]
Cytotoxicity evaluation; [27]
  cytotoxicity at 0.0025 μg/mL: 27.1%
Cytotoxicity evaluation; [28]
  cytotoxicity at 0.025 μg/mL: 9.29%
HepG2 cells [1]; [27]
  CBPI: 1.67
  Mean CBPI: 1.67
HepG2 cells [1]; [28]
  CBPI: 1.97 and 1.92
  Mean CBPI: 1.95
HepG2 cells [2]; [29]
  MNBN cells frequency (%): 11.5% and 12.3%
  Mean frequency (%) of MNBN cells: 11.9%
HepG2 cells [2]; [30]
  MNBN cells frequency (%): 4.6% and 4.1%
  Mean frequency (%) of MNBN cells: 4.35%
